Patent publication US20110086759A1, “CHEMICAL COMPOUNDS” (SYNGENTA CROP PROTECTION, INC., priority 2007, published 2011)

What was measured:
Type in all cases: in vivo
Setaria faberi (SETFA) [1] = assay: Pre-emergence biological efficacy, glasshouse pot test; settings: 312 h
Outline: (§1)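 Test compound, formulated in acetone/water (50:50) containing 0.5% Tween 20 and diluted into an aqueous spray, was applied at 1000 or 250 g/ha to pots sown one day earlier. Injury was rated after 13 days, 100 meaning total damage.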

[2] = tested on: Echinochloa crus-galli (ECHCG); assay: as above; settings: 312 h
Outline: as §1

[3] = tested on: Amaranthus retoflexus (AMARE); assay: as above; settings: Amaranthus retroflexus, 312 h
Outline: as §1

[4] = tested on: Ipomea hederaceae (IPOHE); assay: as above; settings: Ipomoea hederacea, 312 h
Outline: as §1

[5] = tested on: Alopecurus myosuroides (ALOMY); assay: as above; settings: 312 h
Outline: as §1

Solanum nigrum (SOLNI) [6] = assay: as above; settings: 312 h
Outline: as §1

Setaria faberi (SETFA) [7] = assay: Post-emergence biological efficacy, glasshouse pot test; settings: 312 h
Outline: (§2)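 Plants were sown in standard soil and grown 8 days in a glasshouse (24/16° C. day/night, 14 hours light, 65% humidity), then sprayed post-emergence at 1000 or 250 g/ha from acetone/water (50:50) with 0.5% Tween 20. Damage was scored visually after 13 days (0 = none, 100 = total).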

[8] = tested on: Echinochloa crus-galli (ECHCG); assay: as above; settings: 312 h
Outline: as §2

[9] = tested on: Amaranthus retoflexus (AMARE); assay: as above; settings: Amaranthus retroflexus, 312 h
Outline: as §2

[10] = tested on: Ipomea hederaceae (IPOHE); assay: as above; settings: Ipomoea hederacea, 312 h
Outline: as §2

[11] = tested on: Alopecurus myosuroides (ALOMY); assay: as above; settings: 312 h
Outline: as §2

Solanum nigrum (SOLNI) [12] = assay: as above; settings: 312 h
Outline: as §2

[13] = pre-emergence, rate 1,000 g/ha, evaluated after 13 days (100=total damage to plant; 0=no damage), read-out: Percentage damage caused to weed species, SETFA
[14] = pre-emergence, rate 1,000 g/ha, evaluated after 13 days (100=total damage to plant; 0=no damage), read-out: Percentage damage caused to weed species, ECHCG
[15] = pre-emergence, rate 1,000 g/ha, evaluated after 13 days (100=total damage to plant; 0=no damage), read-out: Percentage damage caused to weed species, AMARE
[16] = pre-emergence, rate 1,000 g/ha, evaluated after 13 days (100=total damage to plant; 0=no damage), read-out: Percentage damage caused to weed species, IPOHE
[17] = pre-emergence, rate 1,000 g/ha, evaluated after 13 days (100=total damage to plant; 0=no damage), read-out: Percentage damage caused to weed species, ALOMY
[18] = pre-emergence, rate 1,000 g/ha, evaluated after 13 days (100=total damage to plant; 0=no damage), read-out: Percentage damage caused to weed species, SOLNI
[19] = Rate 1,000 g/ha, post-emergence spray, evaluated after 13 days (100=total damage to plant; 0=no damage to plant), read-out: Percentage damage caused to weed species, post-emergence, SETFA
[20] = Rate 1,000 g/ha, post-emergence spray, evaluated after 13 days (100=total damage to plant; 0=no damage to plant), read-out: Percentage damage caused to weed species, post-emergence, ECHCG
[21] = Rate 1,000 g/ha, post-emergence spray, evaluated after 13 days (100=total damage to plant; 0=no damage to plant), read-out: Percentage damage caused to weed species, post-emergence, AMARE
[22] = Rate 1,000 g/ha, post-emergence spray, evaluated after 13 days (100=total damage to plant; 0=no damage to plant), read-out: Percentage damage caused to weed species, post-emergence, IPOHE
[23] = Rate 1,000 g/ha, post-emergence spray, evaluated after 13 days (100=total damage to plant; 0=no damage to plant), read-out: Percentage damage caused to weed species, post-emergence, ALOMY
[24] = Rate 1,000 g/ha, post-emergence spray, evaluated after 13 days (100=total damage to plant; 0=no damage to plant), read-out: Percentage damage caused to weed species, post-emergence, SOLNI
[25] = pre-emergence, 1,000 g/ha, evaluated after 13 days (100=total damage; 0=no damage), read-out: Percentage damage SETFA
[26] = pre-emergence, 1,000 g/ha, evaluated after 13 days (100=total damage; 0=no damage), read-out: Percentage damage ECHCG
[27] = pre-emergence, 1,000 g/ha, evaluated after 13 days (100=total damage; 0=no damage), read-out: Percentage damage AMARE
[28] = pre-emergence, 1,000 g/ha, evaluated after 13 days (100=total damage; 0=no damage), read-out: Percentage damage IPOHE
[29] = pre-emergence, 1,000 g/ha, evaluated after 13 days (100=total damage; 0=no damage), read-out: Percentage damage ALOMY
[30] = pre-emergence, 1,000 g/ha, evaluated after 13 days (100=total damage; 0=no damage), read-out: Percentage damage SOLNI
[31] = post-emergence, 1,000 g/ha, evaluated after 13 days (100=total damage; 0=no damage), read-out: Percentage damage caused to weed species, SETFA
[32] = post-emergence, 1,000 g/ha, evaluated after 13 days (100=total damage; 0=no damage), read-out: Percentage damage caused to weed species, ECHCG
[33] = post-emergence, 1,000 g/ha, evaluated after 13 days (100=total damage; 0=no damage), read-out: Percentage damage caused to weed species, AMARE
[34] = post-emergence, 1,000 g/ha, evaluated after 13 days (100=total damage; 0=no damage), read-out: Percentage damage caused to weed species, IPOHE
[35] = post-emergence, 1,000 g/ha, evaluated after 13 days (100=total damage; 0=no damage), read-out: Percentage damage caused to weed species, ALOMY
[36] = post-emergence, 1,000 g/ha, evaluated after 13 days (100=total damage; 0=no damage), read-out: Percentage damage caused to weed species, SOLNI

Row | SMILES | pest or weed control at 1000 g/ha (Setaria faberi (SETFA) [1]; [13]) [%] | pest or weed control at 1000 g/ha [2, 14] [%] | pest or weed control at 1000 g/ha [3, 15] [%] | pest or weed control at 1000 g/ha [4, 16] [%] | pest or weed control at 1000 g/ha [5, 17] [%] | pest or weed control at 1000 g/ha (Solanum nigrum (SOLNI) [6]; [18]) [%] | pest or weed control at 1000 g/ha (Setaria faberi (SETFA) [7]; [19]) [%] | pest or weed control at 1000 g/ha [8, 20] [%] | pest or weed control at 1000 g/ha (Setaria faberi (SETFA) [1]; [25]) [%] | pest or weed control at 1000 g/ha [2, 26] [%] | pest or weed control at 1000 g/ha [3, 27] [%] | pest or weed control at 1000 g/ha [4, 28] [%] | pest or weed control at 1000 g/ha [5, 29] [%] | pest or weed control at 1000 g/ha (Solanum nigrum (SOLNI) [6]; [30]) [%] | pest or weed control at 1000 g/ha (Setaria faberi (SETFA) [7]; [31]) [%] | pest or weed control at 1000 g/ha [8, 32] [%] | pest or weed control at 1000 g/ha [9, 33] [%] | pest or weed control at 1000 g/ha [10, 34] [%] | pest or weed control at 1000 g/ha [11, 35] [%] | pest or weed control at 1000 g/ha (Solanum nigrum (SOLNI) [12]; [36]) [%] | also measured
1 | COC(=O)c1nc(C2CC2)nc(N(C)Cc2ccco2)c1Cl [Compound 5-125, 5-Chloro-2-cyclopropyl-4-(N-furan-2-ylmethyl-N-methyl-amino)-6-methoxycarbonyl-pyrimidine] | 80 | 70 | 100 | 100 | 40 | 90 | 80 | 60 | – | – | – | – | – | – | – | – | – | – | – | – | pest or weed control at 1000 g/ha [9, 21]: 100%; pest or weed control at 1000 g/ha [10, 22]: 100%; pest or weed control at 1000 g/ha [11, 23]: 50%; pest or weed control at 1000 g/ha (Solanum nigrum (SOLNI) [12]; [24]): 90%
2 | O=C(OCc1ccccc1)c1nc(C2CC2)nc(NCc2ccco2)c1Cl [Compound 200-125] | 70 | 70 | 100 | 100 | 50 | 100 | 80 | 70 | – | – | – | – | – | – | – | – | – | – | – | – | pest or weed control at 1000 g/ha [9, 21]: 100%; pest or weed control at 1000 g/ha [10, 22]: 90%; pest or weed control at 1000 g/ha [11, 23]: 30%; pest or weed control at 1000 g/ha (Solanum nigrum (SOLNI) [12]; [24]): 90%
3 | COC(=O)c1nc(-c2ccc(C(F)(F)F)cc2C(F)(F)F)nc(NCc2ccco2)c1Cl [Compound 234-48, 2-[2,4-Bis(trifluoro-methyl)phenyl]-5-chloro-4-(furan-2-yl-methylamino)-6-methoxycarbonyl-pyrimidine] | 10 | 10 | 90 | 100 | 20 | 80 | 40 | 30 | – | – | – | – | – | – | – | – | – | – | – | – | pest or weed control at 1000 g/ha [9, 21]: 100%; pest or weed control at 1000 g/ha [10, 22]: 100%; pest or weed control at 1000 g/ha [11, 23]: 10%; pest or weed control at 1000 g/ha (Solanum nigrum (SOLNI) [12]; [24]): 80%
4 | COC(=O)c1nc(C2CC2)nc(NCc2ccccc2N2CCOCC2)c1Cl [Compound 4-88, 5-Chloro-2-cyclopropyl-6-methoxycarbonyl-4-(2-morpholin-4-yl-phenylmethyl-amino)-pyrimidine] | – | – | – | – | – | – | – | – | 20 | 50 | 70 | 100 | 40 | 70 | 60 | 60 | 100 | 80 | 50 | 80 | –
5 | COC(=O)c1nc(C2CC2)nc(NCC(C)c2ccccc2)c1Cl (stereo not drawn) [Compound 4-232, 5-Chloro-2-cyclopropyl-6-methoxycarbonyl-4-[2-(phenyl)propyl-amino]-pyrimidine] | – | – | – | – | – | – | – | – | 30 | 30 | 90 | 50 | 10 | 80 | 50 | 30 | 100 | 100 | 20 | 70 | –
6 | COC(=O)c1nc(C2CC2)nc(NCCc2ccccc2)c1Cl [Compound 4-221, 5-Chloro-2-cyclopropyl-6-methoxycarbonyl-4-(2-phenylethyl-amino)-pyrimidine] | – | – | – | – | – | – | – | – | 60 | 60 | 100 | 100 | 60 | 90 | 70 | 40 | 100 | 100 | 30 | 80 | –
7 | COC(=O)c1nc(C2CC2)nc(NCc2c(OC)cccc2OC)c1Cl [Compound 4-111, 5-Chloro-2-cyclopropyl-4-(2,6-dimethoxyphenyl-methylamino)-6-methoxycarbonyl-pyrimidine] | – | – | – | – | – | – | – | – | 40 | 50 | 90 | 80 | 20 | 60 | 80 | 60 | 100 | 100 | 30 | 100 | –
8 | COC(=O)c1nc(C2CC2)nc(N(C)Cc2cc(OC)cc(OC)c2)c1Cl [Compound 5-113, 5-Chloro-2-cyclopropyl-4-[N-(3,5-dimethoxy-phenylmethyl)-N-methyl-amino]-6-methoxycarbonyl-pyrimidine] | 0 | 0 | 70 | 60 | 0 | 10 | 30 | 10 | – | – | – | – | – | – | – | – | – | – | – | – | pest or weed control at 1000 g/ha [9, 21]: 80%; pest or weed control at 1000 g/ha [10, 22]: 70%; pest or weed control at 1000 g/ha [11, 23]: 10%; pest or weed control at 1000 g/ha (Solanum nigrum (SOLNI) [12]; [24]): 70%
9 | COC(=O)c1nc(C2CC2)nc(NCC2(O)CCCCC2)c1Cl [Compound 4-50, 5-Chloro-2-cyclopropyl-4-[(1-hydroxycyclohex-1-yl)methylamino]-6-methoxycarbonyl-pyrimidine] | – | – | – | – | – | – | – | – | 10 | 10 | 100 | 100 | 10 | 100 | 50 | 10 | 100 | 70 | 10 | 80 | –
